Measurements as given in the supplement of paper PMC10307832.

Assays:
Assay in all cases: relative viability (nuclei count vs DMSO), 5 days (fraction); higher = more cells survive
NCI-H1734 = tested on: NCI-H1734
Procedure, shortened: (§1)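 One day after seeding in 1536-well plates, lung cancer cell lines were dosed by pin tool. Dosing was either single-drug or a fixed anchor-drug dose plus five library-drug doses (not always all listed) in √10 steps. After 5 days, nuclei were stained in one fix-and-stain step and counted on 4× images, and relative viability is the nuclei count of treated wells over that of vehicle wells, given as the median of duplicate plates.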

NCI-H2228 = tested on: NCI-H2228
Procedure, shortened: as §1

NCI-H23 = tested on: NCI-H23
Procedure, shortened: as §1

LC-2-ad = tested on: LC-2-ad
Procedure, shortened: as §1

NCI-H1993 = tested on: NCI-H1993
Procedure, shortened: as §1

SK-LU-1 = tested on: SK-LU-1
Procedure, shortened: as §1

NCI-H2009 = tested on: NCI-H2009
Procedure, shortened: as §1

EMC-BAC-2 = tested on: EMC-BAC-2
Procedure, shortened: as §1

HCC-78 = tested on: HCC-78
Procedure, shortened: as §1

ABC-1 = tested on: ABC-1
Procedure, shortened: as §1

HCC-366 = tested on: HCC-366
Procedure, shortened: as §1

ChaGo-K-1 = tested on: ChaGo-K-1
Procedure, shortened: as §1

COR-L23 = tested on: COR-L23
Procedure, shortened: as §1

A-427 = tested on: A-427
Procedure, shortened: as §1

HARA = tested on: HARA
Procedure, shortened: as §1

HCC-15 = tested on: HCC-15
Procedure, shortened: as §1

NCI-H2405 = tested on: NCI-H2405
Procedure, shortened: as §1

NCI-H838 = tested on: NCI-H838
Procedure, shortened: as §1

UMC-11 = tested on: UMC-11
Procedure, shortened: as §1

NCI-H2023 = tested on: NCI-H2023
Procedure, shortened: as §1

NCI-H1650 = tested on: NCI-H1650
Procedure, shortened: as §1

## CC(C)Oc1cc(Nc2nc(N[C@@H](C)c3ccc(F)cn3)ncc2Cl)n[nH]1 [AZ23] + CC(C)C[C@H](NC(=O)[C@H](Cc1ccccc1)NC(=O)c1cnccn1)B(O)O [Bortezomib] (partner 0.002 µM)
NCI-H1734; first compound 0.01 µM
  relative viability: 1.02
NCI-H1734; first compound 0.03162 µM
  relative viability: 1.37
NCI-H1734; first compound 0.3162 µM
  relative viability: 1.01
NCI-H2228; first compound 0.01 µM
  relative viability: 1.49
NCI-H2228; first compound 0.03162 µM
  relative viability: 1.19
NCI-H2228; first compound 0.3162 µM
  relative viability: 0.84
NCI-H23; first compound 0.03162 µM
  relative viability: 1.12
NCI-H23; first compound 0.3162 µM
  relative viability: 1.04
LC-2-ad; first compound 0.01 µM
  relative viability: 1.16
LC-2-ad; first compound 0.03162 µM
  relative viability: 1.2
LC-2-ad; first compound 0.3162 µM
  relative viability: 1.01
NCI-H1993; first compound 0.01 µM
  relative viability: 0.911
NCI-H1993; first compound 0.3162 µM
  relative viability: 1.16
SK-LU-1; first compound 0.03162 µM
  relative viability: 1.33
SK-LU-1; first compound 0.3162 µM
  relative viability: 1.26
NCI-H2009; first compound 0.01 µM
  relative viability: 1.1
NCI-H2009; first compound 0.03162 µM
  relative viability: 1.06
NCI-H2009; first compound 0.3162 µM
  relative viability: 1.21
EMC-BAC-2; first compound 0.01 µM
  relative viability: 1.2
EMC-BAC-2; first compound 0.03162 µM
  relative viability: 1.11
EMC-BAC-2; first compound 0.3162 µM
  relative viability: 1.16
HCC-78; first compound 0.01 µM
  relative viability: 0.395
HCC-78; first compound 0.03162 µM
  relative viability: 0.507
HCC-78; first compound 0.3162 µM
  relative viability: 0.335
ABC-1; first compound 0.01 µM
  relative viability: 0.29
ABC-1; first compound 0.03162 µM
  relative viability: 0.269
ABC-1; first compound 0.3162 µM
  relative viability: 0.255
HCC-366; first compound 0.01 µM
  relative viability: 1.26
HCC-366; first compound 0.03162 µM
  relative viability: 1.34
HCC-366; first compound 0.3162 µM
  relative viability: 1.1
ChaGo-K-1; first compound 0.01 µM
  relative viability: 0.96
ChaGo-K-1; first compound 0.03162 µM
  relative viability: 1.22
ChaGo-K-1; first compound 0.3162 µM
  relative viability: 1.16
COR-L23; first compound 0.01 µM
  relative viability: 0.921
COR-L23; first compound 0.03162 µM
  relative viability: 1.27
COR-L23; first compound 0.3162 µM
  relative viability: 1.04
A-427; first compound 0.01 µM
  relative viability: 1.07
A-427; first compound 0.03162 µM
  relative viability: 1.11
A-427; first compound 0.3162 µM
  relative viability: 0.969
HARA; first compound 0.01 µM
  relative viability: 1.04
HARA; first compound 0.03162 µM
  relative viability: 1.1
HARA; first compound 0.3162 µM
  relative viability: 1.27
HCC-15; first compound 0.01 µM
  relative viability: 1.38
HCC-15; first compound 0.03162 µM
  relative viability: 1.09
HCC-15; first compound 0.3162 µM
  relative viability: 1.16
NCI-H2405; first compound 0.01 µM
  relative viability: 0.963
NCI-H2405; first compound 0.03162 µM
  relative viability: 1.02
NCI-H2405; first compound 0.3162 µM
  relative viability: 0.948
NCI-H838; first compound 0.01 µM
  relative viability: 0.772
NCI-H838; first compound 0.03162 µM
  relative viability: 0.702
NCI-H838; first compound 0.3162 µM
  relative viability: 0.757
UMC-11; first compound 0.01 µM
  relative viability: 0.766
UMC-11; first compound 0.03162 µM
  relative viability: 0.86
UMC-11; first compound 0.3162 µM
  relative viability: 0.808
NCI-H2023; first compound 0.03162 µM
  relative viability: 0.959
NCI-H2023; first compound 0.3162 µM
  relative viability: 1.22
NCI-H1650; first compound 0.01 µM
  relative viability: 0.189
NCI-H1650; first compound 0.03162 µM
  relative viability: 0.242
NCI-H1650; first compound 0.3162 µM
  relative viability: 0.187

## Clc1ccc(Nc2nnc(Cc3ccncc3)c3ccccc23)cc1 [Vatalanib] + CC(C)C[C@H](NC(=O)[C@H](Cc1ccccc1)NC(=O)c1cnccn1)B(O)O [Bortezomib] (partner 0.002 µM)
NCI-H1734; first compound 0.04 µM
  relative viability: 1.02
NCI-H1734; first compound 0.1265 µM
  relative viability: 1.04
NCI-H1734; first compound 0.4 µM
  relative viability: 1.15
NCI-H1734; first compound 1.265 µM
  relative viability: 0.827
NCI-H1734; first compound 4 µM
  relative viability: 0.893
NCI-H2228; first compound 0.04 µM
  relative viability: 0.865
NCI-H2228; first compound 0.1265 µM
  relative viability: 0.803
NCI-H2228; first compound 0.4 µM
  relative viability: 0.94
NCI-H2228; first compound 1.265 µM
  relative viability: 0.951
NCI-H2228; first compound 4 µM
  relative viability: 1.11
NCI-H23; first compound 0.04 µM
  relative viability: 0.846
NCI-H23; first compound 0.1265 µM
  relative viability: 1.03
NCI-H23; first compound 0.4 µM
  relative viability: 1.14
NCI-H23; first compound 1.265 µM
  relative viability: 0.865
NCI-H23; first compound 4 µM
  relative viability: 1.08
LC-2-ad; first compound 0.04 µM
  relative viability: 0.987
LC-2-ad; first compound 0.1265 µM
  relative viability: 1.01
LC-2-ad; first compound 0.4 µM
  relative viability: 1.17
LC-2-ad; first compound 1.265 µM
  relative viability: 1
LC-2-ad; first compound 4 µM
  relative viability: 0.952
NCI-H1993; first compound 0.04 µM
  relative viability: 1.11
NCI-H1993; first compound 0.1265 µM
  relative viability: 1.05
NCI-H1993; first compound 0.4 µM
  relative viability: 1.02
NCI-H1993; first compound 1.265 µM
  relative viability: 1.01
NCI-H1993; first compound 4 µM
  relative viability: 0.869
SK-LU-1; first compound 0.04 µM
  relative viability: 1.25
SK-LU-1; first compound 0.1265 µM
  relative viability: 0.981
SK-LU-1; first compound 1.265 µM
  relative viability: 1.19
SK-LU-1; first compound 4 µM
  relative viability: 1.14
NCI-H2009; first compound 0.04 µM
  relative viability: 1.19
NCI-H2009; first compound 0.1265 µM
  relative viability: 0.891
NCI-H2009; first compound 0.4 µM
  relative viability: 1.14
NCI-H2009; first compound 1.265 µM
  relative viability: 0.949
NCI-H2009; first compound 4 µM
  relative viability: 0.984
EMC-BAC-2; first compound 0.04 µM
  relative viability: 1.04
EMC-BAC-2; first compound 0.1265 µM
  relative viability: 1.09
EMC-BAC-2; first compound 0.4 µM
  relative viability: 1.12
EMC-BAC-2; first compound 1.265 µM
  relative viability: 1.01
EMC-BAC-2; first compound 4 µM
  relative viability: 1.05
HCC-78; first compound 0.04 µM
  relative viability: 0.391
HCC-78; first compound 0.1265 µM
  relative viability: 0.493
HCC-78; first compound 0.4 µM
  relative viability: 0.474
HCC-78; first compound 1.265 µM
  relative viability: 0.495
HCC-78; first compound 4 µM
  relative viability: 0.571
ABC-1; first compound 0.04 µM
  relative viability: 0.334
ABC-1; first compound 0.1265 µM
  relative viability: 0.243
ABC-1; first compound 0.4 µM
  relative viability: 0.348
ABC-1; first compound 1.265 µM
  relative viability: 0.357
ABC-1; first compound 4 µM
  relative viability: 0.351
HCC-366; first compound 0.04 µM
  relative viability: 1.09
HCC-366; first compound 0.1265 µM
  relative viability: 0.924
HCC-366; first compound 0.4 µM
  relative viability: 1.03
HCC-366; first compound 1.265 µM
  relative viability: 1.06
HCC-366; first compound 4 µM
  relative viability: 1.05
ChaGo-K-1; first compound 0.04 µM
  relative viability: 0.936
ChaGo-K-1; first compound 0.1265 µM
  relative viability: 0.938
ChaGo-K-1; first compound 1.265 µM
  relative viability: 0.991
ChaGo-K-1; first compound 4 µM
  relative viability: 1.03
COR-L23; first compound 0.04 µM
  relative viability: 1.1
COR-L23; first compound 0.1265 µM
  relative viability: 0.934
COR-L23; first compound 0.4 µM
  relative viability: 1.01
COR-L23; first compound 1.265 µM
  relative viability: 1.01
COR-L23; first compound 4 µM
  relative viability: 0.942
A-427; first compound 0.04 µM
  relative viability: 0.965
A-427; first compound 0.1265 µM
  relative viability: 0.926
A-427; first compound 0.4 µM
  relative viability: 0.96
A-427; first compound 1.265 µM
  relative viability: 0.941
A-427; first compound 4 µM
  relative viability: 0.997
HARA; first compound 0.04 µM
  relative viability: 0.71
HARA; first compound 0.1265 µM
  relative viability: 0.953
HARA; first compound 0.4 µM
  relative viability: 1.23
HARA; first compound 1.265 µM
  relative viability: 1.12
HARA; first compound 4 µM
  relative viability: 1.06
HCC-15; first compound 0.04 µM
  relative viability: 1.15
HCC-15; first compound 0.1265 µM
  relative viability: 1.03
HCC-15; first compound 0.4 µM
  relative viability: 1.03
HCC-15; first compound 1.265 µM
  relative viability: 0.978
HCC-15; first compound 4 µM
  relative viability: 1.04
NCI-H2405; first compound 0.04 µM
  relative viability: 1
NCI-H2405; first compound 0.1265 µM
  relative viability: 1.03
NCI-H2405; first compound 0.4 µM
  relative viability: 0.76
NCI-H2405; first compound 1.265 µM
  relative viability: 0.957
NCI-H2405; first compound 4 µM
  relative viability: 0.939
NCI-H838; first compound 0.04 µM
  relative viability: 0.973
NCI-H838; first compound 0.1265 µM
  relative viability: 0.99
NCI-H838; first compound 0.4 µM
  relative viability: 0.805
NCI-H838; first compound 1.265 µM
  relative viability: 0.68
NCI-H838; first compound 4 µM
  relative viability: 0.798
UMC-11; first compound 0.04 µM
  relative viability: 0.802
UMC-11; first compound 0.1265 µM
  relative viability: 0.771
UMC-11; first compound 0.4 µM
  relative viability: 0.709
UMC-11; first compound 1.265 µM
  relative viability: 0.717
UMC-11; first compound 4 µM
  relative viability: 0.688
NCI-H2023; first compound 0.04 µM
  relative viability: 1.02
NCI-H2023; first compound 0.1265 µM
  relative viability: 0.837
NCI-H2023; first compound 0.4 µM
  relative viability: 1.02
NCI-H2023; first compound 1.265 µM
  relative viability: 0.946
NCI-H2023; first compound 4 µM
  relative viability: 0.695
NCI-H1650; first compound 0.04 µM
  relative viability: 0.196
NCI-H1650; first compound 0.1265 µM
  relative viability: 0.217
NCI-H1650; first compound 0.4 µM
  relative viability: 0.206
NCI-H1650; first compound 1.265 µM
  relative viability: 0.174
NCI-H1650; first compound 4 µM
  relative viability: 0.195
